Assay results published in paper PMC3375280 (PLoS ONE, 2012).
Where a chain is given by its changes, count along the chain named.

Experiments:
[1] = target: T1, AT1 C76A/S115C/C289A mutant receptor (Rattus norvegicus, UniProt P25095, C289A/C76A/S115C); test: competition binding, C76A/S115C/C289A mutant; conditions: for Kd ratio relative to WT (in parentheses): C76A/S115C/C289A / WT; for Kd: C76A/S115C/C289A, COS1 membranes, read-out: Binding affinity (Kd)
T1 construct: expressed in transfected cells; host or cells: COS1 cells (membranes)
T1 sequence (P25095 1-359 C76A/S115C/C289A): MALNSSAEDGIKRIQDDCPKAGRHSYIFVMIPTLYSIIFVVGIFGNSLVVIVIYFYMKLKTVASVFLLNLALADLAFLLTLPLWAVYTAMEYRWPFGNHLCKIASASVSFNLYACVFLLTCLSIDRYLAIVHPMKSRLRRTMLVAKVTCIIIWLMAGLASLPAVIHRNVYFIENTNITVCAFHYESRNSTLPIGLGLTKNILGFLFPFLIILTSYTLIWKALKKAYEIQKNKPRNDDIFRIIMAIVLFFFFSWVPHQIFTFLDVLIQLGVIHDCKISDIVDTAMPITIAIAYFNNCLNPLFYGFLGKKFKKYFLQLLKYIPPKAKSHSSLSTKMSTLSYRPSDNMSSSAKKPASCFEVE
Experimental: (§1) The Kd and Bmax values of receptor binding were determined by ^125I-[Sar^1, Ile^8] […] Membranes expressing the WT or mutant AT1 receptors were incubated with 100 pM ^125I-[Sar^1, Ile^8] […] The binding reaction was terminated by filtering the incubation mixture through Whatman GF/C glass filters, and the residues were extensively washed further with binding buffer. The bound ligand fraction was determined from the counts per minute (cpm) remaining on the membrane. Binding kinetics values were determined as previously described.

[2] = target: T2, AT1 C76A/A114C/C289A mutant receptor (Rattus norvegicus, UniProt P25095, A114C/C289A/C76A); test: competition binding, C76A/A114C/C289A mutant; conditions: for Kd ratio relative to WT (in parentheses): C76A/A114C/C289A / WT; for Kd: C76A/A114C/C289A, COS1 membranes, read-out: Binding affinity (Kd)
T2 construct: expressed in transfected cells; host or cells: COS1 cells (membranes)
T2 sequence (P25095 1-359 C76A/A114C/C289A): T1 sequence (P25095 1-359 C76A/S115C/C289A) with A114C, C115S
Experimental: as §1

[3] = target: T3, AT1 C76A/F117C/C289A mutant receptor (Rattus norvegicus, UniProt P25095, C289A/C76A/F117C); test: competition binding, C76A/F117C/C289A mutant; conditions: for Kd ratio relative to WT (in parentheses): C76A/F117C/C289A / WT; for Kd: C76A/F117C/C289A, COS1 membranes, read-out: Binding affinity (Kd)
T3 construct: expressed in transfected cells; host or cells: COS1 cells (membranes)
T3 sequence (P25095 1-359 C76A/F117C/C289A): T1 sequence (P25095 1-359 C76A/S115C/C289A) with C115S, F117C
Experimental: as §1

[4] = target: T4, AT1 C76A/N111C/C289A mutant receptor (Rattus norvegicus, UniProt P25095, C289A/C76A/N111C); test: competition binding, C76A/N111C/C289A mutant; conditions: for Kd ratio relative to WT (in parentheses): C76A/N111C/C289A / WT; for Kd: C76A/N111C/C289A, COS1 membranes, read-out: Binding affinity (Kd)
T4 construct: expressed in transfected cells; host or cells: COS1
T4 sequence (P25095 1-359 C76A/N111C/C289A): T1 sequence (P25095 1-359 C76A/S115C/C289A) with N111C, C115S
Experimental: as §1

[5] = target: T5, AT1 S109A mutant receptor (Rattus norvegicus, UniProt P25095, S109A); test: competition binding, S109A mutant; conditions: for Kd ratio relative to WT (in parentheses): S109A / WT; for Kd: S109A, COS1 membranes, read-out: Binding affinity (Kd)
T5 construct: expressed in transfected cells; host or cells: COS1
T5 sequence (P25095 1-359 S109A): T1 sequence (P25095 1-359 C76A/S115C/C289A) with A76C, S109A, C115S, A289C
Experimental: as §1

[6] = target: T6, AT1 C76A/C289A mutant receptor (Rattus norvegicus, UniProt P25095, C289A/C76A); test: competition binding, C76A/C289A mutant; conditions: for Kd ratio relative to WT (in parentheses): C76A/C289A / WT; for Kd: C76A/C289A, COS1 membranes, read-out: Binding affinity (Kd)
T6 construct: expressed in transfected cells; host or cells: COS1
T6 sequence (P25095 1-359 C76A/C289A): T1 sequence (P25095 1-359 C76A/S115C/C289A) with C115S
Experimental: as §1

| Kd ratio relative to WT (in parentheses) [1] | Kd [1] | Kd ratio relative to WT (in parentheses) [2] | Kd [2] | Kd ratio relative to WT (in parentheses) [3] | Kd [3] | Kd ratio relative to WT (in parentheses) [4] | Kd [4] | Kd ratio relative to WT (in parentheses) [5] | Kd [5] | Kd ratio relative to WT (in parentheses) [6] | Kd [6] | Compound |
| --- | --- | --- | --- | --- | --- | --- | --- | --- | --- | --- | --- | --- |
| 5.3 fold | 4.2 ± 1.6 nM | 2.0 fold | 1.6 ± 0.7 nM | 2.8 fold | 2.2 ± 0.2 nM | 6.8 fold | 5.4 ± 3 nM | 1.1 fold | 0.9 ± 0.2 nM | 3.0 fold | 2.4 ± 0.5 nM | CCCc1nc(C(C)(C)O)c(C(N)=O)n1Cc1ccc(-c2ccccc2-c2nnn[nH]2)cc1 [R239470] |
| 14 fold | 657 ± 114 nM | 2.7 fold | 128 ± 15 nM | 0.6 fold | 29 ± 9 nM | 3.8 fold | 180 ± 94 nM | 0.7 fold | 34 ± 11 nM | 1.5 fold | 73 ± 20 nM | CCCc1nc(C(C)(C)O)c(C(N)=O)n1Cc1ccc(-c2cc(Cc3ccc(O)cc3)ccc2-c2nnn[nH]2)cc1 [R794847] |
| 2.8 fold | 6.5 ± 1.8 nM | 2.4 fold | 5.5 ± 2.6 nM | 1.0 fold | 2.4 ± 1.3 nM | 5.2 fold | 12 ± 4 nM | 1.1 fold | 2.5 ± 0.8 nM | 2.5 fold | 5.7 ± 1.6 nM | CCCc1nc(C(C)(C)O)c(C(=O)O)n1Cc1ccc(-c2ccccc2-c2nnn[nH]2)cc1 [Olmesartan, olmesartan, reference compound] |
